In patent publication US4283398A, “Cephalosporins” (Mitsui Toatsu Chemicals, Inc., priority 1978, dated 1981):
In brackets after ≈: the same amount, converted by molar mass.

Legend:
[1] = test system: Klebsiella pneumoniae (Horino); assay: minimum growth inhibitory concentration (MIC) method; assay type: cell-based; conditions: K. pneumoniae Horino, HIA medium, 37° C., 18 hours, sodium salts
Experimental: (§1) The antibacterial activities of the cephalosporins of this invention were measured using the sodium salts of the compounds obtained in Synthesis Examples 1 and 2. The procedure and the results are shown in Referential Example 1.
(§2) Carbenicillin sodium salt (CB-PC) and cephazoline sodium salt (CEZ) were used as controls.
(§3) The antibacterial activities of the test compounds against various Gram-positive and Gram-negative bacteria were determined in a customary manner by the minimum growth inhibitory concentration method (MIC method).
(§4) A commercially available heart infusion agar medium (to be abbreviated HIA medium) was used as an assay medium, and a commercially available trypto-soy bouillon medium (to be abbreviated TSB) was used as a medium for the growth of test bacterial strains.
(§5) The test compound was diluted with the melted HIA medium to 100 μg/ml as a maximum concentration, and then serially diluted double. The dilutions were poured into sterilized Petri dishes respectively and allowed to cool and solidify to prepare plates containing the test compound.
(§6) The test bacterial strain was cultivated at 37° C. for 18 to 24 hours in the TSB medium. The culture broth was diluted to 50 to 500 times with a freshly prepared TSB culture medium, and one platinum loopful of the dilution was inoculated in each of the plates containing the test compound. The plate was incubated at 37° C. for 18 hours, and the state of growth of the strain on the plate was observed, and the minimum growth inhibitory concentration (MIC) of the test compound was determined.

[2] = test system: Pseudomonas aeruginosa (NCTC 7244); assay: MIC in HIB medium at different inocula (turbidity); assay type: cell-based; conditions: NCTC7244, 18 h, 37° C.
Experimental: (§7) The compounds obtained in Synthesis Examples 1 and 2 were tested in the following manner.
(§8) A suspension of Pseudomonas aeruginosa (NCTC 7244) cultivated at 37° C. for 18 hours in a heart infusion broth medium (HIB medium) in a final amount of 10^5, 10^6 and 10^7 cells/ml in an HIB medium containing each of the test compounds which was obtained in the same way as in Referential Example 1 except that the maximum concentration of the test compound was 200 μg/ml. The bacterial strain was cultivated at 37° C. for 18 hours, and the turbidity of the culture broth was evaluated with the naked eye. The minimum concentration of the test compound at which no turbidity was noted was defined as MIC.

[3] = test system: Pseudomonas aeruginosa (NCTC 7244); assay: minimum bactericidal concentration (MBC); assay type: cell-based; conditions: NCTC7244, 18 h, subculture on HIA medium, 37° C.
Experimental: as §7, §8
After the determination of MIC, one platinum loopful of each of the culture broths in various concentrations was taken out from the test tubes, and inoculated in a separately provided plate of an HIA medium not containing the test compound, and incubated at 37° C. for 18 hours. The growth of the bacterial strain was evaluated.

[4] = blood level in rats after intramuscular administration; assay type: in vivo; conditions: rat, im, 20 mg/kg i.m., serum, read-out: Blood level after administration (average value ± standard deviation); for concentration at 0.25 h: 15 minutes; for concentration at 0.5 h: 30 minutes; for concentration at 1 h: 60 minutes; for concentration at 2 h: 120 minutes
Experimental: The compounds of this invention prepared in synthesis Examples 1 and 2 were each administered intramuscularly to rats, and the concentrations of the compounds in the blood were determined.
Each of the test compounds was intramuscularly injected into the femoral part of rats in a customary manner in a dose of 20 mg/kg for each rat. The blood was drawn by incising the cervical artery and vein at the end of 15 minutes, 30 minutes, 60 minutes, 120 minutes, and 240 minutes after the injection. The separated sera were used for the measurement of the blood level of the test compound. The concentrations of the test compounds in the sera were determined by a thin-layer cup method using Micrococcus luteus ATCC 9341 as an assay microorganism.

[5] = test system: Klebsiella pneumonia (F-5089); assay: minimum growth inhibitory concentration (MIC) method; assay type: cell-based; conditions: Klebsiella pneumoniae, HIA medium, 37° C., 18 hours, sodium salts
Experimental: as §1, §2, §3, §4, §5, §6

Row | SMILES | MIC [1] | MIC ([2]; inoculum 10^5 cells/ml) | MIC ([2]; inoculum 10^6 cells/ml) | MIC ([2]; inoculum 10^7 cells/ml) | MBC ([3]; inoculum 10^5 cells/ml) | MBC ([3]; inoculum 10^6 cells/ml) | MBC ([3]; inoculum 10^7 cells/ml) | concentration at 0.25 h [4] | concentration at 0.5 h [4] | concentration at 1 h [4] | concentration at 2 h [4] | MIC [5]
1 | Cn1nnnc1SCC1=C(C(=O)O)N2C(=O)C(NC(=O)[C@H](NC(=O)c3cnc4c(c3O)C(=O)CCC4)c3ccccc3)C2SC1 (single isomer, unassigned) [Synthesis Example 1, 7-[D-(-)-α-(4-hydroxy-5-oxo-5,6,7,8-tetrahydroquinoline-3-carboxamide)phenylacetamido)-3-[[(1-methyl-1H-tetrazol-5-yl)thio]methyl]-Δ^3-cephem-4-carboxylic acid] | 1.56 µg/mL | 12.5 µg/mL (≈ 19.2 µM) | 12.5 µg/mL (≈ 19.2 µM) | 25 µg/mL (≈ 38.4 µM) | 12.5 µg/mL (≈ 19.2 µM) | 12.5 µg/mL (≈ 19.2 µM) | > 200 µg/mL | 12100 ± 3600 ng/mL | 10500 ± 2200 ng/mL | 9100 ± 3200 ng/mL | 4800 ± 2100 ng/mL | 
2 | Cn1nnnc1SCC1=C(C(=O)O)N2C(=O)C(NC(=O)[C@H](NC(=O)c3cnc4c(c3O)C(=O)CCC4)c3ccc(O)cc3)C2SC1 (single isomer, unassigned) [Synthesis Example 2, 7-[D-(-)-α-(4-hydroxy-5-oxo-5,6,7,8-tetrahydroquinoline-3-carboxamide)-α-(4-hydroxyphenyl)acetamido]-3-[[(1-methyl-1H-tetrazol-5-yl)thio]methyl]-Δ^3-cephem-4-carboxylic acid] | 0.78 µg/mL | 6.25 µg/mL (≈ 9.37 µM) | 6.25 µg/mL (≈ 9.37 µM) | 12.5 µg/mL (≈ 18.7 µM) | 6.25 µg/mL (≈ 9.37 µM) | 12.5 µg/mL (≈ 18.7 µM) | > 200 µg/mL | 20000 ± 1400 ng/mL | 14400 ± 2500 ng/mL | 8000 ± 4000 ng/mL | 3200 ± 1200 ng/mL | 
3 | Cc1nnc(SCC2=C(C(=O)O)N3C(=O)[C@@H](NC(=O)Cn4cnnn4)[C@H]3SC2)s1 [CEZ, sodium 7-[1-(1H)-tetrazoylacetamido]-3-[2-(5-methyl-1,3,4-thiadiazoyl)-thiomethyl]-Δ^3, cephem-4-carboxylate, reference compound] | 3.13 µg/mL | > 200 µg/mL | > 200 µg/mL | > 200 µg/mL | > 200 µg/mL | > 200 µg/mL | > 200 µg/mL |  |  |  |  | 3.13 µg/mL
4 | CC1(C)S[C@@H]2[C@H](NC(=O)C(C(=O)O)c3ccccc3)C(=O)N2[C@H]1C(=O)O (stereo partly drawn) [CB-PC, disodium-α-carboxybenzyl penicillin, reference compound] | 100 µg/mL | 50 µg/mL | 100 µg/mL | 200 µg/mL | 100 µg/mL | 100 µg/mL | > 200 µg/mL |  |  |  |  | 50 µg/mL
